Source: ChEMBL document CHEMBL1126437, “Synthesis and cytotoxicity of enantiomeric pairs of duocarmycin a and its 2-epimer” (Bioorg Med Chem Lett, 1992)
≈ marks a conversion by molar mass, not a printed value.

Tested on: P388
Test: In vitro evaluation for cytotoxicity against P388 murine leukemia.
Format: functional, cell-based, Mus musculus

Compound	IC50 (p388) [ng/mL]	IC50 (Mus musculus, P388, read-out: IC50) [ng/mL]
COC(=O)[C@]1(C)N=C2C(=O)C=C3N(C(=O)c4cc5cc(OC)c(OC)c(OC)c5[nH]4)C[C@H]4C[C@@]34C2=C1O	0.002 (≈ 0.00394 nM)	–
COC(=O)[C@@]1(C)N=C2C(=O)C=C3N(C(=O)c4cc5cc(OC)c(OC)c(OC)c5[nH]4)C[C@@H]4C[C@]34C2=C1O	–	0.3 (≈ 0.591 nM)
